Data taken from patent US10919885B2, “Compounds and uses thereof” (Yumanity Therapeutics, Inc., priority 2018, dated 2021).

Molecular target: human SCD1 (Homo sapiens (Human), UniProt O00767)
Experiment: Yeast growth assay, strain expressing human SCD1 as the sole desaturase (reduced growth as surrogate for SCD inhibition)
Format: cell-based
Conditions: yeast with OLE1 deleted expressing human SCD1 from a plasmid; growth read as OD600 after 40 h at 30° C.; top drug concentration 33.3 μM
Description: Strains expressing SCD1 or SCD5 as the sole desaturase, the human SCD1 and SCD5 genes were used to evaluate inhibition of SCD1/SCD5 using reduced growth as a surrogate for SCD inhibition. These yeast strains express human SCD1 or SCD5 from a plasmid harbored in a strain in which the yeast OLE1 gene is deleted.
All compound profiling experiments were performed using the same basic protocol. Yeast were cultured using standard techniques in complete synthetic media lacking uracil and containing yeast nitrogen base supplemented with 2% (w/v) glucose (SD-Ura) Starter cultures were inoculated in 3 mL SD-Ura media containing 0.01% tween and 0.2 mM palmitoleic and oleic acid. Cultures were incubated overnight in a 30° C. shaker incubator (225 rpm). Saturated morning cultures were centrifuged, washed in SD-Ura media lacking TWEEN-20 and fatty acids, and then diluted 1:20 in fresh SD-Ura media also lacking TWEEN-20 and fatty acids.
Compound administration was performed in two separate steps. First, 15 μL of SD-Ura was dispensed into clear 384-well assay plates using a MULTIDROP™ Combi reagent dispenser. […] The cultures described above were centrifuged and washed with media lacking TWEEN-20 or oleic and palmitoleic acids.
After yeast delivery, assay plates were incubated under humidified conditions at 30° C. for 40 h. Yeast growth was monitored by reading the OD600 of each well using a microplate reader (Perkin Elmer EnVision™).

Chain of human SCD1 (O00767 whole entry): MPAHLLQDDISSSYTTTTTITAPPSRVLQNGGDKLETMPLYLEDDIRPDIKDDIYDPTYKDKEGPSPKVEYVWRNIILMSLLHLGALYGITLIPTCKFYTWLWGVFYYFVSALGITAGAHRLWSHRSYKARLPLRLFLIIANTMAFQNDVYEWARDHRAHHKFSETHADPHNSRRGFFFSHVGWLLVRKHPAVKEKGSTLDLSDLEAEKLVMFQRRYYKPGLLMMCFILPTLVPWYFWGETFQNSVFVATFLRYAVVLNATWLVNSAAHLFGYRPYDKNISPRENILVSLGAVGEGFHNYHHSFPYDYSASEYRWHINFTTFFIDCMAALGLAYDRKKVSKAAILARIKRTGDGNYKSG

Molecule | IC50 [µM]
Cn1c(=O)oc2ccc(-c3cc(C(=O)N4CCC[C@H]4c4ccccc4)no3)cc21 [Compound 444] | > 45
O=C(c1cc(-c2ccc3c(c2)OCO3)on1)N1CCCC1c1ccncc1F (stereo not drawn) [Compound 460] | > 45
COc1ccc(C2CCCN2C(=O)c2cc(-c3ccc(OC(F)(F)F)cc3)on2)cc1 (stereo not drawn) [Compound 380] | > 45
O=C(c1cc(N2CCOCC2)on1)N1CCC[C@H]1c1ccccc1 [Compound 463] | > 45
Cn1ccnc1C1CCCN1C(=O)c1cc(-c2ccc3c(c2)OCO3)on1 (stereo not drawn) [Compound 446] | > 45
O=C(c1cc(-c2ccc3c(c2)OCO3)on1)N1CC=C(c2cc(F)ccc2Cl)CC1 [Compound 306, [5-(1,3-benzodioxol-5-yl)isoxazol-3-yl]-[4-(2-chloro-5-fluoro-phenyl)-3,6-dihydro-2H-pyridin-1-yl]methanone] | 3.27
CNC(=O)c1ccc(-c2cc(C(=O)N3CCC(c4ccccc4)CC3)no2)cc1 [Compound 304, N-methyl-4-[3-(4-phenylpiperidine-1-carbonyl)isoxazol-5-yl]benzamide] | 0.38
Cc1cccc(C2CCCN2C(=O)c2cc(-c3ccc4c(c3)OCO4)on2)c1 (stereo not drawn) [Compound 355] | > 45
O=C(Nc1cnn(Cc2cccc(F)c2)c1)c1cc(N2CCCCC2)on1 [Compound 102, N-(1-(3-fluorobenzyl)-1H-pyrazol-4-yl)-5-(piperidin-1-yl)isoxazole-3-carboxamide] | 0.036
O=C(c1cc(-c2ccc3c(c2)OCO3)on1)N1CCC[C@H]1c1ccon1 [Compound 426] | > 45
Cc1ncc(-c2cc(C(=O)Nc3cnn(Cc4ccccc4)c3)no2)o1 [Compound 164, N-(1-benzyl-1H-pyrazol-4-yl)-5-(2-methyloxazol-5-yl)isoxazole-3-carboxamide] | 11
O=C(Nc1cnn(Cc2ccccc2F)c1)c1cc(-c2ccco2)on1 [Compound 19, N-[1-[(2-fluorophenyl)methyl]pyrazol-4-yl]-5-(2-furyl)isoxazole-3-carboxamide] | 0.36
O=C(Nc1cnn(Cc2ccccc2)c1)c1cc(-c2nncs2)on1 [Compound 170, N-(1-benzyl-1H-pyrazol-4-yl)-5-(1,3,4-thiadiazol-2-yl)isoxazole-3-carboxamide] | 0.131
N#Cc1cccc(C2CCCN2C(=O)c2cc(-c3ccc4c(c3)OCO4)on2)c1 (stereo not drawn) [Compound 396] | 38.9
O=C(Nc1cnn(Cc2ccccc2)c1)c1cc(-c2nccs2)on1 [Compound 110, N-(1-benzyl-1H-pyrazol-4-yl)-5-(thiazol-2-yl)isoxazole-3-carboxamide] | 8.9
O=C(c1cc(-c2ccc3c(c2)OCO3)on1)N1CCC(c2cccc(F)c2)CC1 [Compound 309, [5-(1,3-benzodioxol-5-yl)isoxazol-3-yl]-[4-(3-fluorophenyl)-1-piperidyl]methanone] | > 45
Cc1cnccc1-c1cc(C(=O)Nc2cnn(Cc3ccccc3)c2)no1 [Compound 201, N-(1-benzyl-1H-pyrazol-4-yl)-5-(3-methylpyridin-4-yl)isoxazole-3-carboxamide] | > 45
O=C(Nc1cnn(Cc2cc(F)ccc2C(F)(F)F)c1)c1cc(-c2ccco2)on1 [Compound 36, N-[1-[[5-fluoro-2-(trifluoromethyl)phenyl]methyl]pyrazol-4-yl]-5-(2-furyl)isoxazole-3-carboxamide] | > 45
O=C(c1cc(-c2ccc3c(c2)OCO3)on1)N1CCCC1C1CCOCC1 (stereo not drawn) [Compound 413] | > 45

Molecule | IC50 [µM]
O=C(Nc1cnn(Cc2cnccc2C(F)(F)F)c1)c1cc(-c2ccccc2)on1 [Compound 160, 5-phenyl-N-(1-((4-(trifluoromethyl)pyridin-3-yl)methyl)-1H-pyrazol-4-yl)isoxazole-3-carboxamide] | > 45
O=C(c1cc(-c2ccccc2)on1)N1CCC(c2cccc(F)c2)C1 (stereo not drawn) [Compound 339] | > 45
COc1ccc(C2CCCN2C(=O)c2cc(-c3ccc4c(c3)OCO4)on2)cc1 (stereo not drawn) [Compound 356] | > 45
COc1ccc(-c2cc(C(=O)N3CCC[C@H]3c3ccccc3)no2)cn1 [Compound 410] | 27.1
O=C(c1cc(-c2ccccc2)on1)N1CCC(c2ccccc2C(F)(F)F)CC1 [Compound 289, (5-phenylisoxazol-3-yl)-[4-[2-(trifluoromethyl)phenyl]-1-piperidyl]methanone] | > 45
COC1(c2cc(C(=O)Nc3cnn(Cc4ccccc4)c3)no2)CCC1 [Compound 120] | 0.94
N-(1-(3-fluorobenzyl)-1H-pyrazol-4-yl)-5-(pyrimidin-4-yl)isoxazole-3-carboxamide [Compound 90] | 1.1
O=C(c1cc(-c2ccc3c(c2)OCO3)on1)N1CCCC1c1cccc(F)c1 (stereo not drawn) [Compound 367] | > 45
O=C(c1cc(-c2ccc3c(c2)OCO3)on1)N1CCC(O)(c2ccccc2)CC1 [Compound 300] | > 45
O=C(c1cc(-c2ccc3c(c2)OCO3)on1)N1CCN(c2ccccc2F)CC1 [Compound 277] | > 45
COc1ccc(C2CCCN2C(=O)c2cc(-c3ccc(F)c(OC)c3)on2)cc1 (stereo not drawn) [Compound 383] | 36.6
O=C(c1cc(-c2ccc3c(c2)OCO3)on1)N1C[C@@H](F)C[C@H]1c1ccccc1 [Compound 427] | 30
COc1ccc(-c2cc(C(=O)N3CCN(c4ccccc4)CC3)no2)cc1OC [Compound 274] | > 45
COc1ccc(-c2cc(C(=O)N3CC(Cc4ccccc4)C3)no2)nn1 [Compound 256] | > 45
O=C(Nc1cnn(Cc2ccccc2)c1)c1cc(-c2ccncn2)on1 [Compound 148] | 4
O=C(Nc1cnn(Cc2cccc(C(F)(F)F)c2)c1)c1cc(-c2ccco2)on1 [Compound 20, 5-(2-furyl)-N-[1-[[3-(trifluoromethyl)phenyl]methyl]pyrazol-4-yl]isoxazole-3-carboxamide] | > 45
O=C(Nc1cnn(Cc2cccc(F)c2)c1)c1cc(C2=CCCCC2)on1 [Compound 85, 5-cyclohexenyl-N-(1-(3-fluorobenzyl)-1H-pyrazol-4-yl)isoxazole-3-carboxamide] | 0.011
O=C(Nc1cnn(Cc2cccc(F)c2)c1)c1cc(-c2cnco2)on1 [Compound 86, N-(1-(3-fluorobenzyl)-1H-pyrazol-4-yl)-5-(oxazol-5-yl)isoxazole-3-carboxamide] | 0.188
COc1cccc(F)c1C1CCCN1C(=O)c1cc(-c2ccc3c(c2)OCO3)on1 (stereo not drawn) [Compound 453] | > 45

Molecule | IC50 [µM]
N#Cc1ccccc1-c1cc(C(=O)N2CCC[C@H]2c2ccccc2)no1 [Compound 402] | > 45
COC1(c2ccccc2)CCN(C(=O)c2cc(-c3ccccc3)on2)CC1 [Compound 323] | > 45
COCc1ncc(-c2cc(C(=O)Nc3cnn(Cc4ccccc4)c3)no2)s1 [Compound 140, N-(1-benzyl-1H-pyrazol-4-yl)-5-(2-(methoxymethyl)thiazol-5-yl)isoxazole-3-carboxamide] | 5.12
O=C(c1cc(-c2ccc3c(c2)OCO3)on1)N1CCCC1c1ccc(F)cc1 (stereo not drawn) [Compound 368] | > 45
O=C(c1cc(-c2ccc3c(c2)OCO3)on1)N1CCOCC1c1ccccc1 (stereo not drawn) [Compound 397] | > 45
O=C(c1cc(-c2ccc3c(c2)OCO3)on1)N1CCCC1c1ccnc(Br)c1F (stereo not drawn) [Compound 459] | > 45
COC1CCN(c2cc(C(=O)N3CC(c4ccccc4)C3)no2)CC1 [Compound 249] | > 45
5-acetyl-N-(1-(3-fluorobenzyl)-1H-pyrazol-4-yl)isoxazole-3-carboxamide [Compound 91] | 0.439
CO[C@H]1CCN(c2cc(C(=O)Nc3cnn(Cc4ccccc4)c3)no2)C1 [Compound 189, (S)—N-(1-benzyl-1H-pyrazol-4-yl)-5-(3-methoxypyrrolidin-1-yl)isoxazole-3-carboxamide] | 0.065
O=C(Nc1cnn(Cc2ccccc2)c1)c1cc(N2CCCCC2)on1 [Compound 159, N-(1-benzyl-1H-pyrazol-4-yl)-5-(piperidin-1-yl)isoxazole-3-carboxamide] | 0.058
C[C@H]1CCCN1C(=O)c1cc(-c2ccc3c(c2)OCO3)on1 [Compound 369] | > 45
O=C(Nc1cnn(Cc2ccccc2)c1)c1cc(-c2ccccc2F)on1 [Compound 38, N-(1-benzylpyrazol-4-yl)-5-(2-fluorophenyl)isoxazole-3-carboxamide] | > 45
O=C(c1cc(-c2ccccn2)on1)N1CCC[C@H]1c1ccccc1 [Compound 408] | > 45
O=C(c1cc(-c2ccc3c(c2)OCO3)on1)N1CCCC1c1ncco1 (stereo not drawn) [Compound 423] | > 45
O=C(Nc1cnn(Cc2cccc(F)c2)c1)c1cc(Cl)on1 [Compound 105, 5-chloro-N-(1-(3-fluorobenzyl)-1H-pyrazol-4-yl)isoxazole-3-carboxamide] | 3.9
O=C(c1cc(-c2ccc3c(c2)OCO3)on1)N1CCC[C@@H]1c1ccccc1 [Compound 358] | > 45
N#Cc1ccc(C2CCCN2C(=O)c2cc(-c3ccc4c(c3)OCO4)on2)cc1 (stereo not drawn) [Compound 395] | > 45
COc1ccccc1C1CCCN1C(=O)c1cc(-c2ccc3c(c2)OCO3)on1 (stereo not drawn) [Compound 364] | > 45
COc1ccccc1Cn1cc(NC(=O)c2cc(-c3ccccc3)on2)cn1 [Compound 125, N-(1-(2-methoxybenzyl)-1H-pyrazol-4-yl)-5-phenylisoxazole-3-carboxamide] | > 45
